Results taken from the supplement of paper PMC11061612.

Columns and labels:
[1] = compound: C1CN(CCC1(C(=O)N[C@@H](CCO)C2=CC=C(C=C2)Cl)N)C3=NC=NC4=C3C=CN4 [Capivasertib]; conditions: max 10 µM
Outline: (§1)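 Cancer cell lines were seeded into 1536-well plates in 7.5 μl medium (DMEM/F12 or RPMI, 10% FBS), held 24 hours at 37°C and 5% CO2, and dosed for 72 hours with final DMSO typically 0.2%. Luminescence from CellTiter-Glo 2.0, scaled between blank-well and DMSO-well means, served as viability. The single-agent IC50 was obtained from dose-response fits with a non-linear mixed effects model, each fit being a two-parameter logistic curve.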

[2] = compound: C=CCn1c(=O)c2cnc(Nc3ccc(N4CCN(C)CC4)cc3)nc2n1-c1cccc(C(C)(C)O)n1 [AZD1775]; conditions: max 3 µM
Outline: as §1

[3] = compound: CC(=O)Nc1cccc(-n2c(=O)n(C3CC3)c(=O)c3c(Nc4ccc(I)cc4F)n(C)c(=O)c(C)c32)c1 [Trametinib]; conditions: max 1 µM
Outline: as §1

[4] = compound: CC(=O)c1c(C)c2cnc(Nc3ccc(N4CCNCC4)cn3)nc2n(C2CCCC2)c1=O [Palbociclib]; conditions: max 10 µM
Outline: as §1

[5] = compound: CC(C)n1c(=O)n(C)c2cnc3cc(F)c(-c4ccc(OCCCN5CCCCC5)nc4)cc3c21 [AZD1390]; conditions: max 0.3 µM
Outline: as §1

[6] = compound: CC1(C)CCC(CN2CCN(c3ccc(C(=O)NS(=O)(=O)c4ccc(NCC5CCOCC5)c([N+](=O)[O-])c4)c(Oc4cnc5[nH]ccc5c4)c3)CC2)=C(c2ccc(Cl)cc2)C1 [Venetoclax]; conditions: max 1 µM
Outline: as §1

[7] = compound: CC1=C(C(=CC=C1)Cl)NC(=O)C2=CN=C(S2)NC3=CC(=NC(=N3)C)N4CCN(CC4)CCO [Dasatinib]; conditions: max 2 µM
Outline: as §1

[8] = compound: CC1=CN2[C@@H](C1)C=NC3=CC(=C(C=C3C2=O)OC)OCCCCCOC4=C(C=C5C(=C4)N=C[C@@H]6CC(=CN6C5=O)C)OC [SG3199]; conditions: max 0.001 µM
Outline: as §1

[9] = compound: CCN(CCO)CCCOc1ccc2c(Nc3cc(CC(=O)Nc4cccc(F)c4)[nH]n3)ncnc2c1 [AZD2811]; conditions: max 1 µM
Outline: as §1

[10] = compound: CCc1c2c(nc3ccc(O)cc13)-c1cc3c(c(=O)n1C2)COC(=O)[C@]3(O)CC [SN-38]; conditions: max 0.3 µM
Outline: as §1

[11] = compound: CN(C)CCCOc1ccc(-c2ccc3ncc4c(c3c2)n(C2CCOCC2)c(=O)n4C)cn1 [AZD0156]; conditions: max 3 µM
Outline: as §1

[12] = compound: CN(CC[C@H](CSC1=CC=CC=C1)NC2=C(C=C(C=C2)S(=O)(=O)NC(=O)C3=CC=C(C=C3)N4CCC(CC4)[C@H](C5=CC=CC=C5C6=CC=C(C=C6)Cl)O)S(=O)(=O)C(F)(F)F)CCO [AZD4320]; conditions: max 1 µM
Outline: as §1

[13] = compound: COc1cc(Nc2ncc3c(n2)-c2ccc(Cl)cc2C(c2c(F)cccc2OC)=NC3)ccc1C(=O)O [Alisertib]; conditions: max 10 µM
Outline: as §1

[14] = compound: COc1cc2ncnc(Nc3ccc(F)c(Cl)c3)c2cc1OCCCN1CCOCC1 [Gefitinib]; conditions: max 10 µM
Outline: as §1

[15] = compound: COc1cccc(OCCCN)c1-c1cc(Nc2cnc(C#N)cn2)n[nH]1 [Prexasertib]; conditions: max 1 µM
Outline: as §1

[16] = compound: COc1cccc2c1C(=O)c1c(O)c3c(c(O)c1C2=O)C[C@@](O)(C(=O)CO)C[C@@H]3O[C@H]1C[C@H](N)[C@H](O)[C@H](C)O1 [Doxorubicin]; conditions: max 1 µM
Outline: as §1

[17] = compound: COc1nnc2ccc(N3CCC(c4ccc(OCCN5CCN(C)C(=O)[C@H]5C)cc4)CC3)nn12 [AZD5153]; conditions: max 1 µM
Outline: as §1

[18] = compound: CS(=O)(=O)CCNCc1ccc(-c2ccc3ncnc(Nc4ccc(OCc5cccc(F)c5)c(Cl)c4)c3c2)o1 [Lapatinib]; conditions: max 10 µM
Outline: as §1

[19] = compound: C[C@@H](Nc1cc(F)cc(F)c1)c1cc(C(=O)N(C)C)cc2c(=O)cc(N3CCOCC3)oc12 [AZD8186]; conditions: max 3 µM
Outline: as §1

[20] = compound: C[C@@H](Oc1cc(-c2cnn(C3CCNCC3)c2)cnc1N)c1c(Cl)ccc(F)c1Cl [Crizotinib]; conditions: max 10 µM
Outline: as §1

[21] = compound: C[C@@H](c1ccc2nccn2c1)n1nnc2ncc(-c3cnn(C)c3)nc21 [Savolitinib]; conditions: max 1 µM
Outline: as §1

[22] = compound: C[C@@H]1COCCN1C2=NC(=NC(=C2)C3(CC3)[S@](=N)(=O)C)C4=C5C=CNC5=NC=C4 [AZD6738]; conditions: max 10 µM
Outline: as §1

[23] = compound: Cc1c2c(nn1C)CSCc1cc(n(C)n1)CSc1cc(c3ccccc3c1)OCCCc1c(C(=O)O)n(C)c3c-2c(Cl)ccc13 [AZD5991]; conditions: max 1 µM
Outline: as §1

[24] = compound: Cc1cc2ncnn2cc1Nc1ncc2c(n1)n(C1CCOCC1)c(=O)n2C [AZD7648]; conditions: max 10 µM
Outline: as §1

[25] = compound: Cc1nc(-c2cn3c(n2)-c2ccc(-c4cnn(C(C)(C)C(N)=O)c4)cc2OCC3)n(C(C)C)n1 [Taselisib]; conditions: max 10 µM
Outline: as §1

[26] = compound: Cn1cnc2c(F)c(Nc3ccc(Br)cc3Cl)c(C(=O)NOCCO)cc21 [Selumetinib]; conditions: max 10 µM
Outline: as §1

[27] = compound: NC1(c2ccc(-c3nc4ccn5c(=O)[nH]nc5c4cc3-c3ccccc3)cc2)CCC1 [MK-2206]; conditions: max 10 µM
Outline: as §1

[28] = compound: O=C(c1cc(Cc2n[nH]c(=O)c3ccccc23)ccc1F)N1CCN(C(=O)C2CC2)CC1 [Olaparib]; conditions: max 10 µM
Outline: as §1

| Cell Line | IC50, cell viability 72 h [1] [µM] | IC50, cell viability 72 h [2] [µM] | IC50, cell viability 72 h [3] [µM] | IC50, cell viability 72 h [4] [µM] | IC50, cell viability 72 h [5] [µM] | IC50, cell viability 72 h [6] [µM] | IC50, cell viability 72 h [7] [µM] | IC50, cell viability 72 h [8] [µM] | IC50, cell viability 72 h [9] [µM] | IC50, cell viability 72 h [10] [µM] | IC50, cell viability 72 h [11] [µM] | IC50, cell viability 72 h [12] [µM] | IC50, cell viability 72 h [13] [µM] | IC50, cell viability 72 h [14] [µM] | IC50, cell viability 72 h [15] [µM] | IC50, cell viability 72 h [16] [µM] | IC50, cell viability 72 h [17] [µM] | IC50, cell viability 72 h [18] [µM] | IC50, cell viability 72 h [19] [µM] | IC50, cell viability 72 h [20] [µM] | IC50, cell viability 72 h [21] [µM] | IC50, cell viability 72 h [22] [µM] | IC50, cell viability 72 h [23] [µM] | IC50, cell viability 72 h [24] [µM] | IC50, cell viability 72 h [25] [µM] | IC50, cell viability 72 h [26] [µM] | IC50, cell viability 72 h [27] [µM] | IC50, cell viability 72 h [28] [µM] |
| --- | --- | --- | --- | --- | --- | --- | --- | --- | --- | --- | --- | --- | --- | --- | --- | --- | --- | --- | --- | --- | --- | --- | --- | --- | --- | --- | --- | --- |
| HGC-27 (Gastric Carcinoma) | 0.346 | 2.24 | > 1 | 3.21 | > 0.3 | > 1 | 0.349 | > 0.001 | 0.0941 | 0.0146 | > 3 | > 1 | 0.164 | > 10 | 0.0768 | 0.146 | 0.0548 | 4.94 | 2.38 | 3.25 | > 1 | 2.84 | > 1 | > 10 | 0.0611 | > 10 | 0.501 | > 10 |
| HSC-4 (Oral Cavity Carcinoma) | > 10 | > 3 | > 1 | > 10 | > 0.3 | > 1 | > 2 | > 0.001 | > 1 | 0.0112 | > 3 | > 1 | > 10 | > 10 | 0.205 | > 1 | > 1 | > 10 | > 3 | > 10 | > 1 | 7.28 | > 1 | > 10 | > 10 | > 10 | > 10 | > 10 |
| NCI-H1915 (Non-Small Cell Lung Carcinoma) | > 10 | 2.87 | 0.0347 | > 10 | > 0.3 | > 1 | 0.567 | > 0.001 | > 1 | 0.0616 | > 3 | > 1 | 5.15 | > 10 | 0.335 | > 1 | > 1 | > 10 | > 3 | > 10 | > 1 | > 10 | > 1 | > 10 | > 10 | 3.91 | – | > 10 |
| NEC8 (Other Solid Carcinomas) | > 10 | 0.558 | > 1 | > 10 | > 0.3 | > 1 | > 2 | > 0.001 | > 1 | 0.0215 | > 3 | > 1 | > 10 | > 10 | 0.0357 | 0.595 | 0.226 | > 10 | > 3 | > 10 | > 1 | 5.76 | > 1 | > 10 | > 10 | > 10 | – | > 10 |
| NUGC-3 (Gastric Carcinoma) | > 10 | 0.729 | 0.592 | > 10 | > 0.3 | > 1 | > 2 | > 0.001 | > 1 | 0.00505 | > 3 | > 1 | > 10 | > 10 | 0.193 | 0.128 | > 1 | 5.31 | > 3 | > 10 | > 1 | 6.49 | > 1 | > 10 | 3.75 | > 10 | > 10 | > 10 |
| OE19 (Esophageal Adenocarcinoma) | > 10 | > 3 | > 1 | > 10 | > 0.3 | > 1 | > 2 | > 0.001 | 0.39 | > 0.3 | > 3 | > 1 | 0.167 | 1.36 | 0.105 | > 1 | 0.907 | 0.287 | > 3 | 3.81 | > 1 | 4.05 | > 1 | > 10 | 2.18 | > 10 | – | > 10 |
| OSC-20 (Oral Cavity Carcinoma) | > 10 | 1.22 | > 1 | > 10 | > 0.3 | > 1 | > 2 | > 0.001 | > 1 | 0.0404 | > 3 | > 1 | > 10 | > 10 | 0.458 | > 1 | > 1 | > 10 | > 3 | > 10 | > 1 | > 10 | > 1 | > 10 | 9.68 | > 10 | – | > 10 |
| OVCAR-4 (Ovarian Carcinoma) | > 10 | > 3 | > 1 | > 10 | > 0.3 | > 1 | > 2 | > 0.001 | > 1 | > 0.3 | > 3 | > 1 | > 10 | > 10 | 0.0574 | > 1 | > 1 | > 10 | > 3 | > 10 | > 1 | 6.93 | > 1 | > 10 | > 10 | > 10 | – | > 10 |
| PWR-1E (Non-Cancerous) | > 10 | 0.525 | > 1 | > 10 | > 0.3 | > 1 | 0.371 | > 0.001 | 0.827 | 0.013 | > 3 | > 1 | 1.51 | > 10 | 0.0281 | > 1 | 0.343 | > 10 | > 3 | 8.5 | > 1 | 2.82 | > 1 | > 10 | 7.81 | > 10 | > 10 | > 10 |
| SCC-15 (Oral Cavity Carcinoma) | > 10 | > 3 | > 1 | > 10 | > 0.3 | > 1 | 1.36 | > 0.001 | > 1 | 0.0661 | > 3 | > 1 | > 10 | > 10 | 0.682 | > 1 | > 1 | > 10 | > 3 | > 10 | > 1 | > 10 | > 1 | > 10 | 2 | > 10 | – | > 10 |
| SU8686 (Pancreatic Carcinoma) | > 10 | > 3 | > 1 | > 10 | > 0.3 | > 1 | > 2 | > 0.001 | > 1 | > 0.3 | > 3 | > 1 | > 10 | > 10 | 0.489 | > 1 | > 1 | > 10 | > 3 | > 10 | > 1 | > 10 | > 1 | > 10 | > 10 | > 10 | – | > 10 |
| TE-1 (Esophageal Squamous Cell Carcinoma) | > 10 | 2.22 | > 1 | > 10 | > 0.3 | > 1 | 0.393 | > 0.001 | > 1 | 0.157 | > 3 | > 1 | 6.09 | > 10 | 0.131 | > 1 | > 1 | > 10 | > 3 | > 10 | > 1 | > 10 | > 1 | > 10 | 7.85 | > 10 | – | > 10 |
| VA-ES-BJ (Other Solid Carcinomas) | > 10 | 3 | > 1 | > 10 | > 0.3 | > 1 | > 2 | > 0.001 | > 1 | 0.0188 | > 3 | > 1 | 4.77 | > 10 | 0.118 | 0.464 | > 1 | > 10 | > 3 | > 10 | > 1 | 4.58 | > 1 | > 10 | 4.5 | > 10 | – | > 10 |
